Test results: patent publication US6274715A, “Tricyclic erythromycin derivatives” (priority 1997, dated 2001)
≈ marks a conversion by molar mass, not a printed value.

Tests used:
Type in all cases: cell-based
[1] = test system: STREPTOCOCCUS PYOGENES PIU 2548; assay: In vitro antibacterial activity, MIC, BHI agar dilution; details: S. pyogenes PIU 2548, unit assumed
[2] = test system: PSEUDOMONAS AERUGINOSA DPHD-5263; assay: as above; details: P. aeruginosa DPHD-5263, unit assumed
[3] = test system: KLEBSIELLA PNEUMONIAE ATCC 8045; assay: as above; details: K. pneumoniae ATCC 8045, unit assumed
[4] = test system: STREPTOCOCCUS BOVIS A-5169; assay: as above; details: S. bovis A-5169, unit assumed
[5] = test system: STAPHYLOCOCCUS AUREUS A5177; assay: as above; details: S. aureus A5177, unit assumed
[6] = test system: PSEUDOMONAS AERUGINOSA BMH10; assay: as above; details: P. aeruginosa BMH10, unit assumed
[7] = test system: STAPHYLOCOCCUS AUREUS A-5278; assay: as above; details: S. aureus A-5278, unit assumed
[8] = test system: MYCOBACTERIUM SMEGMATIS ATCC 114; assay: as above; details: M. smegmatis ATCC 114, unit assumed
[9] = test system: PSEUDOMONAS AERUGINOSA 5007; assay: as above; details: P. aeruginosa 5007, unit assumed
[10] = test system: ESCHERICHIA COLI SS; assay: as above; details: E. coli SS, unit assumed
[11] = test system: STAPHYLOCOCCUS AUREUS 1775; assay: as above; details: S. aureus 1775, unit assumed
[12] = test system: PSEUDOMONAS AERUGINOSA K799/WT; assay: as above; details: P. aeruginosa K799/WT, unit assumed
[13] = test system: ENTEROBACTER AEROGENES ATCC 13048; assay: as above; details: E. aerogenes ATCC 13048, unit assumed
[14] = test system: PSEUDOMONAS AERUGINOSA DPHD-2862; assay: as above; details: P. aeruginosa DPHD-2862, unit assumed
[15] = test system: EN[…] ATCC 8043; assay: as above; details: E. faecium ATCC 8043, unit assumed
Summary of the method: (§1)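 Twelve successive aqueous dilutions of compound in Brain Heart Infusion agar were inoculated with 1:100 culture dilutions (1:10 for slow growers such as Micrococcus, Streptococcus) by Steers replicator and incubated at 35-37° C for 20 to 24 hours. MIC was the lowest concentration giving no growth, slight haze or sparse colonies versus drug-free control.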

[16] = test system: STR[…] 508; assay: as above; details: S. agalactiae CMX 508, unit assumed
Summary of the method: as §1

[17] = test system: M[…] ATCC 9341; assay: as above; details: M. luteus ATCC 9341, unit assumed
Summary of the method: as §1

[18] = test system: M[…] ATCC 4698; assay: as above; details: M. luteus ATCC 4698, unit assumed
Summary of the method: as §1

[19] = test system: ESCHERICHIA COLI H560; assay: as above; details: E. coli H560, unit assumed
[20] = test system: STAPHYLOCOCCUS EPIDERMIDIS 3519; details: S. epidermidis 3519; BHI agar; unit assumed
[21] = test system: STAPHYLOCOCCUS AUREUS ATCC 6538P; assay: In vitro antibacterial activity, MIC, BHI agar dilution; details: S. aureus ATCC 6538P, 35-37° C., 20 to 24 hours, unit assumed
[22] = test system: STAPHYLOCOCCUS AUREUS CMX 642A; assay: as above; details: S. aureus CMX 642A, unit assumed
[23] = test system: CANDIDA ALBICANS CCH 442; assay: as above; details: C. albicans CCH 442, unit assumed
[24] = test system: ESCHERICHIA COLI JUHL; details: E. coli JUHL; BHI agar; unit assumed
[25] = test system: STREPTOCOCCUS PYOGENES EES61; assay: In vitro antibacterial activity, MIC, BHI agar dilution; details: S. pyogenes EES61, unit assumed
[26] = test system: PROVIDENCIA STUARTII CMX 640; details: P. stuartii CMX 640; BHI agar; unit assumed
[27] = test system: PSEUDOMONAS AERUGINOSA K799/61; assay: In vitro antibacterial activity, MIC, BHI agar dilution; details: P. aeruginosa K799/61, unit assumed
[28] = test system: PSEUDOMONAS CEPACIA 296I; assay: as above; details: P. cepacia 296I, unit assumed
[29] = test system: ESCHERICHIA COLI DC-2; assay: as above; details: E. coli DC-2, unit assumed
[30] = test system: STAPHYLOCOCCUS AUREUS NCTC10649M; assay: as above; details: S. aureus NCTC10649M, unit assumed
[31] = test system: STAPHYLOCOCCUS AUREUS CMX 553; assay: as above; details: S. aureus CMX 553, unit assumed
[32] = test system: ESCHERICHIA COLI KNK 437; details: E. coli KNK 437; BHI agar; unit assumed
[33] = test system: STREPTOCOCCUS PYOGENES 930; assay: In vitro antibacterial activity, MIC, BHI agar dilution; details: S. pyogenes 930, unit assumed

CC[C@H]1OC(=O)[C@H](C)C(=O)[C@H](C)[C@@H](O[C@@H]2O[C@H](C)C[C@H](N(C)C)[C@H]2O)[C@](C)(OC)C[C@@H](C)C2=N[C@H](COCc3ccc(Br)cc3)CN3C(=O)O[C@@]1(C)[C@H]3[C@H]2C [Example 103]
MIC [1]: 0.05 µg/mL (≈ 0.0597 µM) | MIC [2]: > 100 µg/mL | MIC [3]: > 100 µg/mL | MIC [4]: ≤ 0.005 µg/mL | MIC [5]: 0.05 µg/mL (≈ 0.0597 µM) | MIC [6]: > 100 µg/mL | MIC [7]: 100 µg/mL (≈ 119 µM) | MIC [8]: 0.2 µg/mL (≈ 0.239 µM) | MIC [9]: > 100 µg/mL | MIC [10]: 0.39 µg/mL (≈ 0.466 µM) | MIC [11]: 100 µg/mL (≈ 119 µM) | MIC [12]: > 100 µg/mL | MIC [13]: > 100 µg/mL | MIC [14]: > 100 µg/mL | MIC [15]: ≤ 0.005 µg/mL | MIC [16]: ≤ 0.005 µg/mL | MIC [17]: ≤ 0.005 µg/mL | MIC [18]: ≤ 0.005 µg/mL | MIC [19]: 100 µg/mL (≈ 119 µM) | MIC [20]: 0.05 µg/mL (≈ 0.0597 µM) | MIC [21]: 0.05 µg/mL (≈ 0.0597 µM) | MIC [22]: 0.05 µg/mL (≈ 0.0597 µM) | MIC [23]: 50 µg/mL (≈ 59.7 µM) | MIC [24]: 100 µg/mL (≈ 119 µM) | MIC [25]: ≤ 0.005 µg/mL | MIC [26]: > 100 µg/mL | MIC [27]: 0.78 µg/mL (≈ 0.932 µM) | MIC [28]: 50 µg/mL (≈ 59.7 µM) | MIC [29]: 100 µg/mL (≈ 119 µM) | MIC [30]: 0.05 µg/mL (≈ 0.0597 µM) | MIC [31]: 0.05 µg/mL (≈ 0.0597 µM) | MIC [32]: > 100 µg/mL | MIC [33]: 25 µg/mL (≈ 29.9 µM)
